Data published in patent US11384078B2, “5,6-fused-bicyclic compounds and compositions for the treatment of parasitic diseases” (NOVARTIS AG, priority 2017, dated 2022).
Like-named read-outs stand apart in the source and are kept apart here.

Experiments:
Type in all cases: cell-based
[1] = tested on: Trypanosoma cruzi amastigotes cultured in 3T3 fibroblast cells; assay: Assay for growth inhibition of kinetoplastid parasite Trypanosoma cruzi (beta-galactosidase Tulahuen strain, CPRG readout); details: Trypanosoma cruzi, T. cruzi amastigotes in 3T3 fibroblast cells, read-out: Buckner infectious T. cruzi EC50
Summary of the method: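 3T3 fibroblasts (1,000 cells/well) plated overnight, treated with compound in DMSO, then infected with 10,000 Lac-Z-expressing Tulahuen trypomastigotes. After 6 days, 0.6 mM CPRG with 0.6% NP-40 added for 2 h at room temperature; absorbance gives relative intracellular amastigote numbers. Benznidazole and nifurtimox serve as positive controls.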

[2] = tested on: Trypanosoma brucei brucei (Lister 427) strain; assay: Assay for growth inhibition against Trypanosoma brucei brucei (Cell TiterGlo ATP luminescence); details: Trypanosoma brucei, T. brucei brucei (Lister 427); read-out: T. Brucei (HAT) EC50
Summary of the method: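 T. b. brucei Lister 427 grown in HMI-9 with 10% FBS and 10% serum plus, seeded at 10,000 parasites/mL with 10-point threefold compound dilutions in duplicate, 37 °C for 2 days. Viability read as ATP luminescence 30 min after Cell TiterGlo; IC50 versus untreated controls.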

[3] = tested on: L. donovani HU3 strain in mouse peritoneal macrophages; assay: Assay for inhibition of parasitemia of Leishmania donovani in mouse macrophages (SYBR Green nuclei count, high-content imaging); details: Leishmania donovani, Peritoneal macrophage, read-out: L. donovani in Mouse Macrophages EC50
From the text: Assay for Inhibition of Parasitemia of Leishmania donovani in Mouse Macrophages
The assay measures the increase in the parasite number in the assayed plate well using a DNA intercalating dye, SYBR Green I® dye (INVITROGEN) to stain Leishmania cell nuclei. L. donovani HU3 strain is propagated by infecting BALB/c mice through tail vein injection with 10^7 Leishmania parasites. Infected mice are allowed to develop infection during 9-11 weeks post-infection. During this time, the parasites accumulate in the infected mouse spleens to large numbers, and the infected mice serve as the source of parasites for the in vitro measurement of compound efficacies. To assay a compound for anti-leishmanial activity, peritoneal macrophages isolated from non-infected BALB/c mice are seeded into 384-well plates at density 2×10^4 macrophages per well in […] of medium (RPM11640, 10% fetal serum albumin, 10 mM HEPES, 1 mM sodium pyruvate, 1% Pen/Strep). Subsequently, the seeded plates are placed into an incubator set to maintain 37° C. temperature and atmosphere with 5% CO2.
The next day, Leishmania parasites are isolated from the spleens of mice infected for 9-11 weeks and 4×10^5 isolated parasites in […] of the above media are added to each plate well. Plates are then returned into incubators and infection is allowed to proceed for 24 hours. After the infection of macrophages is completed, […] of compounds of the invention in the above medium, which also contains 5% DMSO, are added to plate wells containing infected macrophages. At the same time control compounds (miltefosine and amphotericin B) and DMSO are added to plates to serve as the positive and negative controls, respectively. After the compound addition, the plates are returned into incubator and cells infected with parasites are cultured for 5 days. At the end of cultivation, […] of 8% paraformaldehyde is added to plate wells and incubated for 15 min at room temperature. Following the incubation, the paraformaldehyde from plate wells is aspirated, and […] of PBS containing 0.2% Triton X-100 is added to wells. After 15 min incubation, the solution is aspirated from wells again, and replaced with Sybr® Green Dye solution in PBS (1:125,000 dilution). Infected cells are imaged with Evotec Opera high-content microscope, and the number of parasites in well is determined by counting parasite nuclei visualized by staining with Sybr® Green dye.

[4] = tested on: Leishmania donovani axenic amastigote; assay: In vitro assay for growth inhibition of Leishmania donovani axenic amastigote (Cell TiterGlo luminescence); details: Leishmania donovani, L. donovani axenic amastigotes in vitro; read-out: L. donovani amastigotes EC50
Summary of the method: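 Axenic L. donovani amastigotes (9600/well) grown at 37 °C, 5% CO2 in supplemented RPMI 1640, pH 5.5, with compound added from DMSO. After two days, viability read by CellTiter-Glo luminescence against DMSO and control-compound wells.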

[5] = L. donovani in mouse peritoneal macrophages

SMILES	EC50 ([1]; Fibroblast) [nM]	EC50 [2] [nM]	EC50 [3, 5] [nM]	EC50 [4] [nM]	EC50 [1] [nM]	EC50 [3] [nM]
O=C(Nc1ccc(F)c(-n2cc3cc(N4CC(F)(F)C4)cnc3n2)c1)[C@H]1C[C@@H]1F (single isomer, unassigned) [Compound 339]	112	163	310	1590		
Cc1cccnc1-c1cnc2nn(-c3cc(NC(=O)c4ccco4)ccc3F)cc2c1 [Compound 2, N-(4-fluoro-3-(5-(3-methylpyridin-2-yl)-2H-pyrazolo[3,4-b]pyridin-2-yl)phenyl)furan-2-carboxamide]	1	< 23	4.4	3		
Cc1cccnc1-c1cnc2nn(-c3cc(NC(=O)N4CCC4)ccc3F)cc2c1 [Compound 3, N-(4-fluoro-3-(5-(3-methylpyridin-2-yl)-2H-pyrazolo[3,4-b]pyridin-2-yl)phenyl)azetidine-1-carboxamide]	1.6	< 23	2	1.8		
CC(C)Cc1cnc2nn(-c3cc(NC(=O)N4CCC4)ccc3F)cc2c1 [Compound 7, N-(4-fluoro-3-(5-isobutyl-2H-pyrazolo[3,4-b]pyridin-2-yl)phenyl)azetidine-1-carboxamide]	1.6	< 23	4	7.7		
CC(C)Cc1cnc2nn(-c3cc(NC(=O)N4CC(F)(F)C4)ccc3F)cc2c1 [Compound 8, 3,3-difluoro-N-(4-fluoro-3-(5-isobutyl-2H-pyrazolo[3,4-b]pyridin-2-yl)phenyl)azetidine-1-carboxamide]	4.5	< 23	3.3	7.7		
CN(C)c1cnc2nn(-c3cc(NC(=O)N4CC(F)(F)C4)ccc3F)cc2c1 [Compound 9, N-(3-(5-(dimethylamino)-2H-pyrazolo[3,4-b]pyridin-2-yl)-4-fluorophenyl)-3,3-difluoroazetidine-1-carboxamide]	9.8	35	11	8.7		
O=C(Nc1ccc(F)c(-n2cc3cc(N4CCC4)cnc3n2)c1)N1CCC1 [Compound 10, N-(3-(5-(azetidin-1-yl)-2H-pyrazolo[3,4-b]pyridin-2-yl)-4-fluorophenyl)azetidine-1-carboxamide]		< 23		16	4.8	7.8
CC(C)Cc1cnc2nn(-c3cc(NC(=O)N4CC(F)C4)ccc3F)cc2c1 [Compound 14, 3-fluoro-N-{4-fluoro-3-[5-(2-methylpropyl)-2H-pyrazolo[3,4-b]pyridin-2-yl]phenyl}azetidine-1-carboxamide]	2	< 23	9.7	12		
O=C(Nc1ccc(F)c(-n2cc3cc(C4CC4)cnc3n2)c1)N1CC(F)C1 [Compound 15, N-(3-{5-cyclopropyl-2H-pyrazolo[3,4-b]pyridin-2-yl}-4-fluorophenyl)-3-fluoroazetidine-1-carboxamide]	5	< 23	17	13		
O=C(Nc1ccc(F)c(-n2cc3cc(C4CCCCC4)cnc3n2)c1)N1CC(F)C1 [Compound 19, N-(3-{5-cyclohexyl-2H-pyrazolo[3,4-b]pyridin-2-yl}-4-fluorophenyl)-3-fluoroazetidine-1-carboxamide]	11	< 23	81	11		
O=C(Nc1ccc(F)c(-n2cc3cc(C4CCC4)cnc3n2)c1)N1CC(F)C1 [Compound 20, N-(3-{5-cyclobutyl-2H-pyrazolo[3,4-b]pyridin-2-yl}-4-fluorophenyl)-3-fluoroazetidine-1-carboxamide]	4.2	< 23	37	10		
CC(C)(C)Cc1cnc2nn(-c3cc(NC(=O)N4CC(F)C4)ccc3F)cc2c1 [Compound 21, N-{3-[5-(2,2-dimethylpropyl)-2H-pyrazolo[3,4-b]pyridin-2-yl]-4-fluorophenyl}-3-fluoroazetidine-1-carboxamide]	1.7	< 23	6.5	7.7		
CC(C)(C)c1cnc2nn(-c3cc(NC(=O)N4CC(F)C4)ccc3F)cc2c1 [Compound 22, N-(3-{5-tert-butyl-2H-pyrazolo[3,4-b]pyridin-2-yl}-4-fluorophenyl)-3-fluoroazetidine-1-carboxamide]	7.2	< 23	21000	28		
CCCC(C)c1cnc2nn(-c3cc(NC(=O)N4CC(F)C4)ccc3F)cc2c1 (stereo not shown) [Compound 23, 3-fluoro-N-{4-fluoro-3-[5-(pentan-2-yl)-2H-pyrazolo[3,4-b]pyridin-2-yl]phenyl}azetidine-1-carboxamide]	78	< 23	110	140		
CCC(C)(C)c1cnc2nn(-c3cc(NC(=O)N4CC(F)C4)ccc3F)cc2c1 [Compound 24, 3-fluoro-N-{4-fluoro-3-[5-(2-methylbutan-2-yl)-2H-pyrazolo[3,4-b]pyridin-2-yl]phenyl}azetidine-1-carboxamide]	440	610	1000	880		
CCC(C)c1cnc2nn(-c3cc(NC(=O)N4CC(F)C4)ccc3F)cc2c1 (stereo not shown) [Compound 25, N-{3-[5-(butan-2-yl)-2H-pyrazolo[3,4-b]pyridin-2-yl]-4-fluorophenyl}-3-fluoroazetidine-1-carboxamide]	17	< 23	47	21		
CC(C)CCc1cnc2nn(-c3cc(NC(=O)N4CC(F)C4)ccc3F)cc2c1 [Compound 27, 3-fluoro-N-{4-fluoro-3-[5-(3-methylbutyl)-2H-pyrazolo[3,4-b]pyridin-2-yl]phenyl}azetidine-1-carboxamide]	38	< 23	15	33		
O=C(Nc1ccc(F)c(-n2cc3cc(-c4ccccn4)cnc3n2)c1)N1CC(F)C1 [Compound 28, 3-fluoro-N-{4-fluoro-3-[5-(pyridin-2-yl)-2H-pyrazolo[3,4-b]pyridin-2-yl]phenyl}azetidine-1-carboxamide]	1	< 23	2	1.3		
O=C(Nc1ccc(F)c(-n2cc3cc(C4CC4)cnc3n2)c1)N1CC(F)(F)C1 [Compound 29, N-(3-{5-cyclopropyl-2H-pyrazolo[3,4-b]pyridin-2-yl}-4-fluorophenyl)-3,3-difluoroazetidine-1-carboxamide]	11	< 23	9.7	8.2		
CC(C)(C)Cc1cnc2nn(-c3cc(NC(=O)N4CC(F)(F)C4)ccc3F)cc2c1 [Compound 32, N-{3-[5-(2,2-dimethylpropyl)-2H-pyrazolo[3,4-b]pyridin-2-yl]-4-fluorophenyl}-3,3-difluoroazetidine-1-carboxamide]	5	< 23	13	12		
CC(C)(C)c1cnc2nn(-c3cc(NC(=O)N4CC(F)(F)C4)ccc3F)cc2c1 [Compound 33, N-(3-{5-tert-butyl-2H-pyrazolo[3,4-b]pyridin-2-yl}-4-fluorophenyl)-3,3-difluoroazetidine-1-carboxamide]	720	280	560	290		
CCCC(C)c1cnc2nn(-c3cc(NC(=O)N4CC(F)(F)C4)ccc3F)cc2c1 (stereo not shown) [Compound 34, 3,3-difluoro-N-{4-fluoro-3-[5-(pentan-2-yl)-2H-pyrazolo[3,4-b]pyridin-2-yl]phenyl}azetidine-1-carboxamide]	160	150	270	200		
